Data from patent publication US9999636B2, “Insulin-mimetics as therapeutic adjuncts for bone regeneration” (Rutgers, The State University of New Jersey, priority 2010, dated 2018).
Marks after values point to notes of the source that are not given here.

Experiments:
[1] = system: closed mid-diaphyseal femur fracture; assay: Torsional mechanical testing of fractured femora, local ZnCl2 with or without CaSO4 carrier; type: in vivo, BB Wistar rat; parameters: Percent Effective Shear Stress: scale not given: direction of the effect not stated beside the values; details: for mode of torsional failure: femurs harvested 4 weeks post-surgery (FIG. 2)
Excerpt: In addition to the biomechanical parameters determined through torsional testing, the mode of failure can also provide substantial information. The mode of torsional failure as determined by gross inspection provided an indication as to the extent of healing. A spiral failure in the mid-diaphyseal region indicated a complete union while a transverse failure through the fracture site indicated a nonunion. A combination spiral/transverse failure indicated a partial union (FIG. 2).
To prepare the ZnCl2/CaSO4 mixture, CaSO4 (2 g) were placed in glass vials. The vials were placed in an autoclave and sterilized […] in a dry cycle. CaSO4 powder (0.8 g) was mixed with 400 μl of saline or 400 μl of ZnCl2 solution (1.0 mg/kg) for one minute at room temperature. The mixture was packed into the barrel of a 1 cc sterile syringe and pushed down into the open orifice of the syringe barrel by insertion of the syringe plunger. After attaching an 18-gauge sterile needle to the syringe barrel, 0.1 ml volume of the mixture was directly injected into the rat femoral canal (non-diabetic BB Wistar rat) prior to Kirschner wire insertion and fracture.

[2] = 10.0 mg/kg local, no carrier
Excerpt: Diabetic Resistance (DR) BB Wistar rats used in the study were obtained from a breeding colony at UMDNJ-New Jersey Medical School (NJMS). The rats were housed under controlled environmental conditions and fed ad libitum. All research protocols were approved by the Institutional Animal Care and Use Committee at University of Medicine and Dentistry of New Jersey-New Jersey Medical School.
Doses of ZnCl2 were not based on each animal's body weight, but on a lower theoretically tolerable dose for a 290-gram BB Wistar rat, which would not elicit heavy metal poisoning or behavioral changes. This weight is over 50 grams lower than the average weight of non-diabetic BB Wistar rats at an age of approximately 90 days (the age of investigation in this study). A 0.1 ml volume of the ZnCl2 solution was administered locally via a single injection into the marrow space for each dose examined.

[3] = system: posterolateral intertransverse lumbar fusion L4-L5; assay: Radiographic grading of posterolateral lumbar spinal fusion; type: in vivo, Sprague-Dawley rat; details: n = 10, eight weeks
[4] = system: closed mid-diaphyseal femur fracture; details: four weeks post-fracture
Excerpt: X-rays are taken at two-week intervals to the day of euthanasia. After euthanasia x-rays are taken as well. To take x-rays, animals will be given a half dose of anesthesia. All groups will be monitored closely for four days after surgery for infection, and the ability to ambulate freely.

[5] = high dose 1.0 mg/kg Calcium Sulfate pellet, 1 mg/kg
[6] = low dose 0.5 mg/kg Calcium Sulfate pellet, listed as zinc, 0.5 mg/kg

## [Cl-].[Cl-].[Zn+2] [ZnCl2, Zinc chloride]
[1]; 1.0 mg/kg
  mode of torsional failure: spiral fracture indicative of healing
[1]; 3.0 mg/kg
  mode of torsional failure: spiral fracture indicative of healing
[1]; 10.0 mg/kg, no carrier, 4 weeks post-fracture, normalized to contralateral (intact) femur
  Percent Effective Shear Stress: 27 ± 11%
[1]; applied directly to fracture site, instead of average eight to ten weeks in standard rat femur fracture model
  time in which fracture healing resolved: four to five weeks
[2]
  Blood Glucose 12 Hours Post-Surgery: 87.7 ± 8.5 ^a mg/dl

## [Zn] [Zn]
[3]; [5]
  Radiographs: number graded A = solid fusion mass bilaterally: 7
  Radiographs: number graded D = Graft resorption: 0
[3]; [6]
  Radiographs: number graded A = solid fusion mass bilaterally: 7/10
  Radiographs: number graded D = Graft resorption: 0/10

## manganese chloride [MnCl2]
[4]; 0.25 mg/kg, vs saline controls
  mineralized tissue on radiographs: increased mineralized tissue
[4]; saline control had no evidence of union
  union on radiographs: demonstrated union at the subperiosteal bony area and at the callus
